What is called MIC is the lowest concentration that inhibits growth of the organism. Broadly, the inhibition is the share of the control response that was lost under treatment.

This is an account of results in ChEMBL document CHEMBL1133905, “Novel lipase-catalysed enantioselective deacetylation of (+/-)-5-acetoxy-3-(4-fluorophenyl)-2-phenylisoxazolidine” (2001).

The structures appear in SMILES notation. ≈ marks a conversion by molar mass, not a printed value.

The subject of assay [1] is Mycobacterium tuberculosis. The assay is described as follows: Inhibition against Mycobacterium tuberculosis. Type of assay: functional.
Assay [2] concerns Mycobacterium tuberculosis. The experiment in a line: Inhibition against Mycobacterium tuberculosis at 6.25 ug/mL. Type of assay: functional.

On to `CC(=O)OC1CC(c2ccc(F)cc2)N(c2ccccc2)O1` (racemic), for which the MIC in assay [1] amounted to 6.25 µg/mL (≈ 20.7 µM). In assay [2], this molecule displayed an inhibition at 6.25 µg/mL of 78%.
